Test results: EP0285883A2, “Bactobolin as a prophylactic or therapeutic agent for autoimmune diseases, and as an immuno-suppressive agent” (ZAIDAN HOJIN BISEIBUTSU KAGAKU KENKYU KAI, priority 1987, dated 1988)
Values joined by “and” are separate entries in the source; they are usually repeats but may differ in a detail not shown here. Equal entries are not always repeated.

How the values were obtained:
[1] = tested on: EAE; experiment: Test 3: EAE, treatment started after onset of clinical signs; assay type: in vivo; details: 0.5 mg/Kg i.p., started on the day of the first clinical sign
Experimental: A study was conducted to determine whether the intraperitoneal administration of bactobolin made after the incidence of EAE was therapeutically effective, or not.

[2] = tested on: EAE; experiment: Test 2: EAE in MBP/CFA-immunized rats, treatment during the effector phase (Day 8-14); assay type: in vivo; details: for Histologic score (±SD): treatment during the effector phase, evaluated for 15 days after the immunization
Experimental: Bactobolin was administered intraperitoneally to the MBP/CFA-immunized animals (rats) during a period (Day 8-14), which was considered to correspond primarily to the effector phase of EAE, and during this period the effects of bactobolin was estimated.

[3] = tested on: mouse; details: in mouse, intravenous; cited from earlier work
[4] = tested on: lymph node cells; experiment: Test 5: lymphocyte proliferative responses of lymph node cells from treated rats (tritiated thymidine uptake); assay type: in vivo
Experimental: Using lymph node cells which were separately collected separately from control rats and from the bactobolin-intraperitoneally administered rats on Day 11 (the 11th day after the sensitization), the lymphocyte proliferative responses to specific antigen, as well as the response to Con A were assessed.
Note 1:- Animals belonging to Bactobolin-administered group were daily intraperitoneally with 0.5mg/kg of bactobolin from Day 1 P.I. to Day 8 P.I., and the control animals were treated with PBS. Note 2:-Lymph node cells were obtained from control and bactobolin-treated rats 11 days after the sensitization. These lymphoid cells were cultured with GPBP (10 µg/mℓ), PPD (10 µg/mℓ) or Con A (2 µg/mℓ) for 3 days. The proliferative responses were assessed by measuring the uptake of tritiated thymidine.
In the above, CPM means the measured number of count per minute; MBP means myelin basic protein; PPD means a purified protein derivative; and Con A means concanavalin A.

[5] = tested on: Acute Experimental Autoimmune Encephalomyelitis (EAE) of Rat; experiment: Test 1: acute EAE of rat, treatment during the induction phase; assay type: in vivo, rats; details: for Incidence of EAE Number of animals affected/Number of animals tested: 0.5 mg/Kg intraperitoneal daily, observed for 16 days after immunization; for Histologic score (±SD): treatment during the inductive phase, mean of six separate sections incl. spinal cord and brain, ratings zero to 4
Experimental: To animals (rats) as sensitized with myelin basic protein/complete Freund adjuvant (hereinafter affreviated as MBP/CFA) for immunization, 0.5 mg/kg of bactobolin was administered by intraperitoneal injection daily from the next day (Day 1) of the immunization to Day 8. This administration period corresponds approximately to the induction phase of EAE.

[6] = tested on: Passively Induced EAE; experiment: Test 4: passively induced EAE (transfer of precultured spleen cells); assay type: in vivo, rats; details: 0.5 mg/Kg, sacrificed Day 9 P.I.

Structure (SMILES): C[C@H](N)C(=O)N[C@@H]1[C@H]2C(=C(O)C[C@@H](O)[C@@H]2O)C(=O)O[C@]1(C)C(Cl)Cl [Bactobolin, bactobolin]
- Paralysis score (±SD) [1]: 4.6 ± 1.2
- Whole duration of illness (days ± SD) [1]: 4.4 ± 1.0 days
- Paralysis score (±SD) ([1]; listed as bactobolin): suppressed significantly
- Whole duration of illness (days ± SD) ([1]; listed as bactobolin): no substantial influences were observed
- Paralysis score (±SD) ([2]; 0.5 mg/Kg i.p., effector phase, Day 8-14, sacrificed on Day 15 P.I.): 0 ± 0
- Incidence of EAE (number of animals affected number of animals tested) ([2]; 0.5 mg/Kg i.p., effector phase, Day 8-14 after the immunization): suppressed the incidence of EAE markedly and 0/5
- Histologic score (±SD) [2]: 0.1 ± 0.1
- Histologic score (±SD) ([2]; listed as bactobolin): suppressed histologic lesion markedly
- acute LD50 toxicity [3]: 6.25 to 12.5 mg/kg
- CPM ± SD (uptake of tritiated thymidine) ([4]; Con A (2 µg/mℓ), 0.5mg/kg i.p. daily Day 1-8 P.I., cells taken 11 days after sensitization, cultured 3 days): suppressed
- lymphocyte proliferative responses to specific antigen ([4]; lymph node cells of the bactobolin-administered group, Day 11, result in words): No lymphocyte proliferative responses to specific antigen were observed
- Paralysis score (±SD) ([5]; 0.5 mg/Kg i.p. daily, Day 1-8 (induction phase), sum of the scores daily estimated during the disease): 0 ± 0
- Incidence of EAE Number of animals affected/Number of animals tested ([5]; Day 1-8 (induction phase)): 0/5
- Incidence of EAE Number of animals affected/Number of animals tested ([5]; Day 1-8 (induction phase), listed as bactobolin): none of the rats developed EAE
- Histologic score (±SD) [5]: 0.5 ± 0.6
- Histologic score (±SD) ([5]; listed as bactobolin): suppresses histologic EAE markedly
- Paralysis score (±SD) ([6]; recipients administered Day 1 to Day 8 P.I.): 0 ± 0
- Incidence of EAE (days ± SD) ([6]; recipients of 2x10^7 precultured spleen cells, administered Day 1 to Day 8 P.I.): suppressed the incidence of passively induced EAE markedly and 0/2
